Data set [1] in a line: pH of the acid forming the acid component (pH meter, 20°C). The format is physicochemical. As to conditions: organic acid 1.0 g in purified water 1.0 L, inorganic acid 0.1-mol/L aqueous solution, for a salt, pH of the acid forming it. On the procedure: No particular limitation is imposed on the acidity of the acid forming the acid component (B), which is specifically the pH of the acid forming the acid component (B) at 20°C, is for example, 1 to 6. […] When the acid component (B) is an inorganic acid, the pH corresponds to a value measured by use of a […] aqueous solution. In the case of a metal salt of the acid, the pH corresponds to the pH of the acid forming the metal salt thereof.
The pH of a liquid prepared by mixing an acid (1.0 g) and purified water (1.0 L) was measured at 20°C by means of a pH meter (product of HORIBA, Ltd.). In the case of an organic acid salt, the pH of the acid forming the salt was measured.
The pH of a 0.1-mol/L aqueous solution of the acid employed was measured at 20°C in the same manner as employed above.

A short description of data set [2]: physchem. The protocol: The acid component (B) preferably has high solubility in a good solvent for the modified conjugated diene-based polymer (A).
An acid or a metal salt thereof (1.0 g) was added to cyclohexane (1.0 L), and the system was tightly closed. The contents were mixed at 25°C for 5 minutes. The resultant liquid mixture was allowed to stand for 10 minutes, and then the state of the liquid mixture was visually observed.

For the molecule `CCCCC(CC)C(=O)O` (centres unmarked) [b-1, 2-ethylhexanonic acid], in data set [1], the pH came out at 3.
For `O=C(O)c1ccccc1C(=O)O` [b-2, phthalic acid], in data set [1], the pH is listed as 4. The solubility at 5 min in data set [2] (25 °C, organic solvent or mixture, thermodynamic from solid) is at least 1000 µg/mL.
Turning to `Cl` [b-3, hydrochloric acid], the pH in data set [1] is 1.
For `CCCCC(CC)COP(=O)(O)OCC(CC)CCCC` (centres unmarked) [b-4, bis(2-ethylhexyl) phosphate], in data set [2] (1.0 g in 1.0 L cyclohexane, mixed 5 minutes, stood 10 minutes, visual), the “solubility in cyclohexane at 25°C” value was at least 1000 µg/mL.

For the origin of these results see patent EP4786540A1, “POLYMER COMPOSITION AND METHOD FOR PRODUCING SAME, FORMULATION, CROSSLINKED PRODUCT, AND TIRE” (priority 2023, dated 2025).
